Source: patent publication US20260265244A1, “HETEROCYCLIC COMPOUNDS AS STING ANTAGONISTS” (Boehringer Ingelheim International GmbH, priority 2022, published 2026)

Tests used:
[1] = system: STING inhibition in human whole blood (IFNα2α production); experiment: Human whole blood assay (HWBA): cGAMP-stimulated IFNα2α production; type: cell-based; details: Homo sapiens
Protocol: For the detection of STING inhibition in physiological environment human whole blood was stimulated by the cyclic dinucleotide cGAMP. Pathway activity was monitored by measuring the IFNα2α production.
Assay method: Compounds were delivered as 10 mM DMSO solution and serial diluted and transferred to the 96-well Cell culture Plate (Corning #3595), prefilled with 20 μl OptiMEM (Gibco #11058-021) in each well, using an Echo acoustic dispenser. Typically, 8 concentrations were used with the highest concentration at 10 μM in the final assay volume followed by ~1:5 dilution steps. DMSO concentration was set to 0.1% in the final assay volume. The 96 well assay plate contained 9 test compounds, a reference compound and DMSO in control wells.
Collection of human whole blood from 3 or more healthy donors (male or female, no medication for 7 days, exception contraceptive and thyroxine) as Na-citrate blood (e.g. 3.8% in Monovettes from Sarstedt) is conducted in parallel. Whole blood was kept at room temperature for a maximum of 3 hours after collection until use in the assay.
160 μl of the whole blood samples were transferred to each well of the 96-well assay plates filled with compound/OptiMEM. All assay plates are prepared as duplicates with blood from different donors. Blood plates were kept at room temperature for 60 minutes and continuous shaking with 450 rpm, covered with the lid, but not sealed.
A 10× cGAMP assay solution was diluted from a 2 mM stock solution in 1×HBSS immediately before use at room temperature. 20 μl of the 10× cGAMP/HBSS were added to all compound and all high control wells, whereas HBSS only was added to all low control wells.
After covering assay plates with aera seals and the lid, blood plates were kept at room temperature for 30 minutes and continuous shaking with 450 rpm, followed by an overnight incubation of 22 h at 37° C. in the incubator, without shaking.
For the detection of IFNα-2α in human plasma, the biotinylated capture antibody (Antibody set IFNA2, Meso Scale Diagnostics #B21VH-3, including coating and capture antibody) was diluted 1:17.5 in Diluent 100 (Meso Scale Diagnostics #R50AA-4, according to the manufacturer. U-Plex MSD GOLD 96-well Small Spot Streptavidin SECTOR Plates (Meso Scale Diagnostics #L45SA-5) were coated with 25 μl diluted capture antibody. Coated plates were incubated for 60 min at room temperature under continuous shaking at 700 rpm. MSD IFNα-2α plates were washed three times with 150 μl wash buffer (1×HBSS, 0.05% Tween).
After blocking the plates with 100 μl block solution/well (1×HBSS with 0.2% Tween, 2% BSA) for 60 min at room temperature and continuous shaking at 700 rpm, plates were emptied as dry as possible by dumping just before continuing with the human plasma. Whole Blood assay plates were centrifuged at 1600 rpm for 10 minutes. 25 μl of supernatant was transferred with a pipetting robotics from each whole blood plate to the corresponding IFNα-2α plate. Plates were sealed with microplate seals and kept at room temperature again under continuous shaking at 700 rpm for two hours. Next MSD IFNα-2α plates were washed three times with 150 μl wash buffer (1×HBSS, 0.05% Tween), before adding 25 μl MSD SULFO-TAG IFNα-2α Antibody solution (1:100 diluted in Diluent 3 (Meso Scale Diagnostics #R50AP-2) to each well of the plates. Afterwards plates were sealed with microplate seals and kept at room temperature again under continuous shaking at 700 rpm for two hours. Finally MSD IFNα-2α plates were washed three times with 150 μl wash buffer (1×HBSS, 0.05% Tween). 150 μl 2×Read buffer was added to each well and plates were immediately measured with the MSD Sector S600 Reader using the vendor barcode.
Data evaluation and calculation: For data evaluation and calculation, % control calculation of each well was based on the mean of high (cGAMP stimulated control) and mean of low (unstimulated control) controls by using the following formula: […]

[2] = target: T1, cGAMP binding domain of wild-type (GRR) human STING, residues 155-341 (Homo sapiens, UniProt Q86WV6, H232R); experiment: Increase of stability of STING protein against thermal denaturation, Differential Scanning Fluorimetry (DSF)
T1 construct: His-TEV-hSTING (WT); TEV protease cleavage site (N); made in house; host or cells: E. coli BL21 DE3
Protocol: Dye fluorescence is quenched in aqueous environment and increases upon association of the dye with the hydrophobic parts of the unfolding protein. […] The inflection point of the curve represents the “melting” temperature of the protein (Tm) which is calculated numerically using the Boltzmann equation.
Method: The thermal stability of the STING protein was measured using a specific expression construct of the cGAMP binding domain of wild-type (GRR) human STING comprising residues 155-341 and a N-terminal 8×His-tag (SEQ ID NO: 3) in assay buffer containing 20 mM Tris, 150 mM NaCl at pH7.5.
The assay uses Hard-Shell® PCR Plates 384-Well CLR/WHT (Catalog #HSP3805, BIO-RAD), Microseal® ‘B’ Adhesive Seals for PCR Plates (Catalog #MSB-1001, BIO-RAD) and was run on a CFX384 Real-Time System (Bio-Rad).
A DMSO stock solution of SYPRO orange (SIGMA S5692-500UL) was prepared.
Compound stock solutions (10 mM in DMSO) were diluted 1:2 in DMSO to an intermediate compound concentration of 5 mM and then further diluted 1:40 in assay buffer resulting in a compound concentration of 125 μM and 2.5% DMSO.
Fluorescent dye stock solution (5000×SYPRO Orange) was then mixed with target protein and buffer to a concentration of 15 uM Protein and 25×SYPRO Orange. 2 ul of this protein-dye-mixture was added to 8 ul compound solution. Final volume was 10 uL. 3-6 well positions were used as negative control (protein with 2% DMSO). The plates were prepared for duplicate measurement and centrifuged for 2 min at 1000 g. In the measurement, 160 cycles of 0.5° C. were used (temperature ramp 15 s/cycle, 15° C. to 95° C.).
Final Assay concentrations for compound characterization were as follows: 100 uM compound, 3 uM target protein, 5×SYPRO Orange, 2% DMSO in 10 ul. All dispensing steps were performed using a HamiltonStar pipetting robot (Hamilton).
Dissociation curves were processed in Bio-Rad CFX Manager. Peak type was set to “negative”. Compound codes for screen were assigned in the plate layout.
Two replicates of TM measurements were averaged, and the standard deviation was calculated. In cases of SD>1.5° C. the measurement was repeated.
The melting point (Tm) obtained for STING protein alone was subtracted from T obtained for protein incubated with ligand to generate ΔTm values.
Protein production and purification: The protein used for the biophysical experiments was a recombinant human STING protein comprising its cytosolic ectodomain. A codon optimized DNA sequence (for expression in Escherichia coli) encoding amino acid residues 155 to 341 (Swiss Prot Q86WV6) of human STING (WT) was synthesized by GeneArt (Regensburg, Germany) and inserted into a pET17b E. coli expression vector. The protein construct encodes an N-terminal 8×His-tag (SEQ ID NO: 3) followed by tobacco etch virus protease (TEV) cleavage site and the above STING gene sequence. The resulting protein sequence for the used STING variant is listed below:
For expression of recombinant human STING above construct was transformed into E. coli BL21 DE3 strain and grown in shake flasks in LB-medium at 37° C. Expression was induced by addition of isopropyl β-D-1-thiogalactopyranoside to a final concentration of 1 mM and cultures shaken overnight. Cell pellets were centrifuged and stored at −70° C. until further use. Protein was purified by cell thawing in lysis buffer (20 mM TRIS-HCl, pH 8, 300 mM NaCl, 2 mM mercaptoethanol, 20 mM imidazole, Complete Protease Inhibitor (Roche) and DNase (Roche)), followed by metal affinity purification using Ni-NTA resins and elution buffer consisting of 20 mM TRIS-HCl, pH 8, 300 mM NaCl, 2 mM mercaptoethanol, 300 mM imidazole and size exclusion chromatography in running buffer (20 mM TRIS-HCl, pH 8, 100 mM NaCl, 2 mM DTT). The peak fraction was collected and concentrated to 2.5 mg/mL.

[3] = system: STING; details: in vitro and in BLM-induced SSc mice; cited from earlier work

T1 sequence (Q86WV6 with tags, fused parts or gaps H232R): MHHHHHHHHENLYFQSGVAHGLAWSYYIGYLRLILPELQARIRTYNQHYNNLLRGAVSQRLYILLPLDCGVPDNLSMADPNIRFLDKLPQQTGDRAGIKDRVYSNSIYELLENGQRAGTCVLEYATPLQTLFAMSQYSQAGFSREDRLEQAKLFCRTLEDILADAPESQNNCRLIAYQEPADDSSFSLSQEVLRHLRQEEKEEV

Cn1cc2cc(-c3nc(-c4cccc5nn(C[C@H](O)c6ccc(OCc7ccccc7)cc6)cc45)c(C4CC4)n3C)c(C3CC3)nc2n1 [Example 4, (1R)-1-[4-(benzyloxy)phenyl]-2-[4-(5-cyclopropyl-2-{6-cyclopropyl-2-methyl-2H-pyrazolo[3,4-b]pyridin-5-yl}-1-methyl-1H-imidazol-4-yl)-2H-indazol-2-yl]ethan-1-ol]
IC50 [1]: 800 nM
DSF [2]: 27 K

CCOc1nc2nn(C)cc2cc1-n1nc(-c2cccc3nn(C[C@H](O)c4ccccc4)cc23)c(C(C)C)c1C [Example 5, (1R)-2-[4-(1-{6-ethoxy-2-methyl-2H-pyrazolo[3,4-b]pyridin-5-yl}-5-methyl-4-(propan-2-yl)-1H-pyrazol-3-yl)-2H-indazol-2-yl]-1-phenylethan-1-ol]
IC50 [1]: 61 nM

Cn1c(-c2cc3cn(CCCN4CCOCC4)nc3nc2C2CC2)nc(-c2cccc3nn(C[C@H](O)c4ccccc4)cc23)c1C1CC1 [Example 11, (1R)-2-[4-(5-cyclopropyl-2-{6-cyclopropyl-2-[3-(morpholin-4-yl)propyl]-2H-pyrazolo[3,4-b]pyridin-5-yl}-1-methyl-1H-imidazol-4-yl)-2H-indazol-2-yl]-1-phenylethan-1-ol]
IC50 [1]: 70 nM
DSF [2]: 30 K

Cc1nc2nn(CC3COCCO3)cc2cc1-n1nc(-c2cccc3nn(C[C@H](O)c4ccccc4)cc23)c(C(C)C)c1C (stereo partly drawn) [Example 31, (1R)-2-[4-(1-{2-[(1,4-dioxan-2-yl)methyl]-6-methyl-2H-pyrazolo[3,4-b]pyridin-5-yl}-5-methyl-4-(propan-2-yl)-1H-pyrazol-3-yl)-2H-indazol-2-yl]-1-phenylethan-1-ol]
IC50 [1]: 110 nM
DSF [2]: 27 K

COCCc1nc2nn(C)cc2cc1-n1nc(-c2cccc3nn(C[C@H](O)c4ccccc4)cc23)c(C(C)C)c1C [Example 38, (1R)-2-(4-{1-[6-(2-methoxyethyl)-2-methyl-2H-pyrazolo[3,4-b]pyridin-5-yl]-5-methyl-4-(propan-2-yl)-1H-pyrazol-3-yl}-2H-indazol-2-yl)-1-phenylethan-1-ol]
IC50 [1]: 130 nM
DSF [2]: 26 K

Cc1nc2nn(CCCN(C)C)cc2cc1-n1nc(-c2cccc3nn(C[C@H](O)c4ccccc4)cc23)c(C(C)C)c1C [Example 43, (1R)-2-[4-(1-{2-[3-(dimethylamino)propyl]-6-methyl-2H-pyrazolo[3,4-b]pyridin-5-yl}-5-methyl-4-(propan-2-yl)-1H-pyrazol-3-yl)-2H-indazol-2-yl]-1-phenylethan-1-ol]
IC50 [1]: 140 nM

COc1nc2nn(C)cc2cc1-n1nc(-c2cccc3nn(C[C@H](O)c4ccccc4)cc23)c(C(C)C)c1C [Example 59, (1R)-2-[4-(1-{6-methoxy-2-methyl-2H-pyrazolo[3,4-b]pyridin-5-yl}-5-methyl-4-(propan-2-yl)-1H-pyrazol-3-yl)-2H-indazol-2-yl]-1-phenylethan-1-ol]
IC50 [1]: 240 nM
DSF [2]: 27 K

C=Cn1cc2cc(-c3nc(-c4cccc5nn(C[C@H](O)c6ccccc6)cc45)c(C4CC4)n3C)c(C3CC3)nc2n1 [Example 61, (1R)-2-[4-(5-cyclopropyl-2-{6-cyclopropyl-2-ethenyl-2H-pyrazolo[3,4-b]pyridin-5-yl}-1-methyl-1H-imidazol-4-yl)-2H-indazol-2-yl]-1-phenylethan-1-ol]
IC50 [1]: 270 nM
DSF [2]: 30 K

Cc1c(C(C)C)c(-c2cccc3nn(C[C@H](O)c4ccccc4)cc23)nn1-c1cc2cn(C)nc2nc1OCCO [Example 71, 2-{[5-(3-{2-[(2R)-2-hydroxy-2-phenylethyl]-2H-indazol-4-yl}-5-methyl-4-(propan-2-yl)-1H-pyrazol-1-yl)-2-methyl-2H-pyrazolo[3,4-b]pyridin-6-yl]oxy}ethan-1-ol]
IC50 [1]: 370 nM
DSF [2]: 26 K

Cc1nc2nn(CP(C)(C)=O)cc2cc1-n1nc(-c2cccc3nn(C[C@H](O)c4ccccc4)cc23)c(C(C)C)c1C [Example 77, (1R)-2-[4-(1-{2-[(dimethylphosphoryl)methyl]-6-methyl-2H-pyrazolo[3,4-b]pyridin-5-yl}-5-methyl-4-(propan-2-yl)-1H-pyrazol-3-yl)-2H-indazol-2-yl]-1-phenylethan-1-ol]
IC50 [1]: 550 nM
DSF [2]: 27 K

Cc1nc2nn(CCC#N)cc2cc1-n1nc(-c2cccc3nn(C[C@H](O)c4ccccc4)cc23)c(C(C)C)c1C [Example 99]
IC50 [1]: 35 nM
DSF [2]: 29 K

CCc1ccc(NC(=O)Nc2c[nH]c3ccccc23)cc1 [Example H151]
fibrosis and vasculopathy [3]: ameliorated fibrosis and vasculopathy
